Experimental data taken from paper PMC13492380, “Dissecting Structural and Functional Determinants of Microtubules Stabilization through Guided Chemical Modulation” (Journal of Medicinal Chemistry, 2026).
Like-named read-outs stand apart in the source and are kept apart here.

Experiments:
A549 cells = test: Indirect immunofluorescence of the microtubular network; assay type: cell-based, human; settings: 24 h
Source text: We first assessed their impact on the cellular microtubular network. […] These defects manifested as multinucleated cells resulting from multiple abnormal star-like spindles, leading to an aberrant arrangement of chromosomes. […] We then evaluated their ability to overcome intrinsic resistance mechanisms using cell lines overexpressing βIII-tubulin isotype (HeLaβIII) or P-glycoprotein, PgP, (Kb-V1), compared to parental HeLa and Kb-3.1 cells.
2 Cellular and biochemical characterization of compounds 1a and 1b. (A) Effects of compounds on A549 cells. […] Top row panels are control cells treated with 0.5% DMSO (vehicle), with the usual and evenly distributed microtubular network in interphase and normal bipolar spindle with chromosomes aligned at the metaphase plate during mitosis. […] All images are shown at the same magnification; scale bar 10 μm. […] (C) Van’t Hoff Plot of the equilibrium binding constants of compounds 1a and 1b at the assayed temperatures. Error bars represent the standard error of the measurement.
DMSO was always less than 0.5% v/v. PEG and Triton X-100 were applied to cells prior the fixation with 3.7% formaldehyde, as previously described. Cells were incubated with a DM1A mouse monoclonal antibody (Sigma-Aldrich) reacting with α-tubulin. […] Images were recorded using a Leica DFC360 FX CCD camera.

[1] = test system: taxane site of assembled cross-linked MTs; test: Displacement of FTX2 from the taxane site (fluorescence polarization); assay type: binding, calf; settings: for incremental binding free energy (ΔΔG), PTX-to-derivative modification: 35 °C; for ΔH 0 app: Van't Hoff analysis, 26–42 °C; for ΔG 0 app at 26 °C: from binding constant, −RT Ln Ka; for ΔS 0 app: slope of ΔG0app versus T
Description: Purified calf brain tubulin and chemicals were obtained as previously described. Tau-mCherry was expressed and purified as described previously. Human Kif5B-EGFP (amino acids 1-905), containing a C terminal fluorescent-tag followed by a 3C protease cleavage site and a 6 × His-tag was expressed and purified as in with some modifications. Prior to purification, cells were resuspended in 1:1 ratio of lysis buffer (30 mM HEPES pH 7.5, 300 mM NaCl, 0.5 mM ATP, 5% glycerol, 20 mM imidazole, […]) supplemented with 1× Protease inhibitor cocktail and benzonase to the final concentration of 25 units/ml. Cells were homogenized by repeated pipetting. Cells were lysed by spinning for 45 min at 40,000 rpm in 45 Ti fixed-angle rotor (Beckman Coulter) at 4 °C. The supernatant was incubated with pre-equilibrated HisPUR NiNTA agarose resin (Thermo Fisher Scientific) for 1 h in a tightly closed gravity-flow column (Thermo Fisher Scientific) at 4 °C by slowly rotating. Subsequently, the resin was washed once lysis buffer and then with buffer B (30 mM HEPES pH 7.5, 300 mM NaCl, 0.5 mM ATP, 5% glycerol, 30 mM imidazole, […]). The protein was eluted from the resin after an overnight cleavage of the 6 × His-tag with 3C HRV protease in lysis buffer at 4 °C. The eluted protein was further purified via size exclusion chromatography on Superdex 200 10/300 GL column equilibrated in exclusion buffer (30 mM HEPES pH 7.5, 300 mM NaCl, 0.5 mM ATP, 5% glycerol, […]). Peak fractions were analyzed via SDS-PAGE, pooled and the protein was concentrated with Amicon Ultra-15 Centrifugal Filter tubes (Millipore). Purified proteins were aliquoted, snap-frozen in liquid N2, and stored at −80 °C.
The equilibrium binding constant of 1a and 1b to the taxane site of assembled MTs were determined by the displacement of FTX2 from the taxane site in cross-linked MTs. The displacement isotherm of each ligand was measured at least three times in two different plates with a fluorescence polarization microplate reader, as described. A mixture of 50 nM taxane binding sites and 50 nM FTX2 in GAB buffer was sampled in a 96-well plate. […] After mixing the samples for 10 min by shaking at 250 rpm, they were incubated 20 min at the desired temperatures (26, 35 or 42 °C) and their anisotropies were measured using a Spark Tecan plater reader in fluorescence polarization at emission of 535 nm and excitation of 485 nm. A sample containing 50 nM taxane binding sites was employed as blank, and a 50 nM solution of FTX2 in GAB, 0.1 mM GTP was employed as anisotropy standard. G factor was calculated as a mean over several cells in different conditions. The molar saturation fraction, X b , of the probe for each competitor concentration is calculated from the polarization values measured, P. Measurements of the polarization of FTX2 completely displaced (P 0 ) and, in absence of the competitor ligand (P sat), are required for data processing. The binding of FTX2 in the presence of the competitor ligand (X b = (P–P 0 /P sat – P 0 ) · X sat) was calculated and best fitted to the equilibrium binding constant of the competitor assuming unitary stoichiometry and the binding constant of the reference ligand (FTX2) with a PC program (Equigra v5).
Once the equilibrium binding constants are measured at different temperatures, the standard free energy of binding at a given temperature is calculated from the binding constant as ΔG 0app = −RT Ln K a, the standard enthalpy of the binding reaction is calculated from the representation of Ln K a versus 1/T (Van’t Hoff representation), and the slope of this representation multiplied by −R is equal to −ΔH 0app. The standard entropy of binding to ΔS 0app is calculated from the slope of the linear regression of ΔG 0app versus T.

[2] = test system: taxane site of assembled cross-linked MTs; settings: cited from earlier work
[3] = equilibrium constants from anisotropy measurements, ref footnote c 'As in ref .' (number not given)
[4] = ref footnote b 'As in ref .' (number not given)

SMILES | selected concentration showing equivalent effect on microtubular network and mitotic spindles (A549 cells) [µM] | fold lower binding constant than PTX [1] [fold] | incremental binding free energy (ΔΔG), PTX-to-derivative modification [1] [kJ mol^–1] | ΔH 0 app [1] | ΔG 0 app at 26 °C [1] | ΔS 0 app [1] | K b 26 °C [2, 3] | K b 35 °C [2, 3] | K b 42 °C [2, 3] | K b 26 °C [2, 4] | K b 35 °C [2, 4] | K b 42 °C [2, 4] | ΔG 0 app at 26 °C [2, 4] | ΔS 0 app [2, 4]
CC(=O)OC1C(=O)C2(C)C(OC(=O)CCCCC(=O)OC3CCc4ccccc43)CC3OCC3(OC(C)=O)C2C(OC(=O)c2ccccc2)C2(O)CC(OC(=O)C(O)C(NC(=O)c3ccccc3)c3ccccc3)C(C)=C1C2(C)C (stereo not drawn) [1a, 7-O-(6″-O-(2‴,3‴-Dihydroinden-1‴-yl)hexanedioyl) Paclitaxel] | 2 | ~100 | 9.8 | –24 ± 4 kJ mol^–1 | –31.9 ± 0.1 kJ mol^–1 | –27 ± 5 J mol ^aK^–1 | – | – | – | – | – | – | – | –
COc1ccc2c(c1)CC(NC(=O)CCCCCCCC(=O)OC1CC3OCC3(OC(C)=O)C3C(OC(=O)c4ccccc4)C4(O)CC(OC(=O)C(O)C(NC(=O)c5ccccc5)c5ccccc5)C(C)=C(C(OC(C)=O)C(=O)C13C)C4(C)C)CC2 [1b, 7-O-((S)-9″-(7‴-Methoxy-1‴,2‴,3‴,4‴-tetrahydronaphthalen-2‴-yl)amino) −9″-oxononanoyl) Paclitaxel] | 1 | ~100 | 12.8 | –35 ± 7 kJ mol^–1 | –28.9 ± 0.3 kJ mol^–1 | 20 ± 5 J mol ^aK^–1 | – | – | – | – | – | – | – | –
CC(=O)O[C@H]1C(=O)[C@]2(C)[C@@H](OC(=O)[C@H](C)NC(=O)c3ccc(-c4c5cc(F)c(=O)cc-5oc5cc(O)c(F)cc45)c(C(=O)O)c3)C[C@H]3OC[C@@]3(OC(C)=O)[C@H]2[C@H](OC(=O)c2ccccc2)[C@]2(O)C[C@H](OC(=O)[C@H](O)[C@@H](NC(=O)c3ccccc3)c3ccccc3)C(C)=C1C2(C)C [FTX2, Flutax2] | – | – | −0.3 | – | – | – | (5.9 ± 0.3) × 10^7 M-1 | (2.2 ± 0.2) × 10^7 M-1 | (1.8 ± 0.2) × 10^7 M-1 | – | – | – | – | –
CC(=O)O[C@H]1C(=O)[C@@]2(C)[C@H]([C@H](OC(=O)c3ccccc3)[C@]3(O)C[C@H](OC(=O)[C@H](O)[C@@H](NC(=O)c4ccccc4)c4ccccc4)C(C)=C1C3(C)C)[C@]1(OC(C)=O)CO[C@@H]1C[C@@H]2O [PTX, Paclitaxel] | – | – | – | – | – | – | – | – | – | (2.64 ± 0.17) × 10^7 M-1 | (1.43 ± 0.17) × 10^7 M-1 | (0.94 ± 0.23) × 10^7 M-1 | –41.7 ± 0.2 kJ mol^–1 | –29.3 ± 13.1 J mol ^aK^–1
